Experiment: passive permeability, PAMPA, ADME assay (AID 1508612)
Details: pH 7.4, 30.0 min, 50.0 µM

Structure (SMILES) | Papp
Cc1nc2sccn2c(=O)c1S(=O)(=O)Nc1ccc(N2CCN(S(C)(=O)=O)CC2)cc1 | 209 ×10⁻⁶ cm/s
Cn1c(=O)c2c(-c3ccc(Cl)cc3)n(CCc3ccccc3)cc2n(C)c1=O | > 1000 ×10⁻⁶ cm/s
CC1=C[C@@H](CNC(C)C)[C@H](C(C)C)C[C@H]1Cc1nnc(-c2ccncc2)o1 | 649 ×10⁻⁶ cm/s
Cn1nnnc1Sc1ncnc2sccc12 | 67.6 ×10⁻⁶ cm/s
Cc1cccc(-c2[nH]c(C(C)(C)C)nc2-c2ccc3nccnc3c2)n1 | 512 ×10⁻⁶ cm/s
COc1ccc(C(=O)NC2CCN(c3cnn(CC4CC4)c(=O)c3)CC2)c(OC)n1 | 550 ×10⁻⁶ cm/s
O=C1CCCc2cc(S(=O)(=O)Nc3cnccc3C(=O)Nc3nc(-c4ccccc4)cs3)ccc2N1 | 1.7 ×10⁻⁶ cm/s
Cc1ccc(S(=O)(=O)Nc2cnccc2C(=O)NCc2ccccc2)cc1 | 27.7 ×10⁻⁶ cm/s
CN(C)c1cccc(-c2ncc(F)c(N3CCC(C(N)=O)CC3)n2)c1 | 599 ×10⁻⁶ cm/s
CCn1cc(C(=O)N2CCN(c3cccc(Cl)c3)CC2)c2cc(OC)c(OC)cc2c1=O | 833 ×10⁻⁶ cm/s
O=[N+]([O-])c1cccc(CNc2ccc(S(=O)(=O)Nc3nccs3)cc2)c1O | 28.6 ×10⁻⁶ cm/s
Cc1[nH]c2ccccc2c1CN1CCN(c2ccccn2)CC1 | > 1000 ×10⁻⁶ cm/s
CCCS(=O)(=O)c1nc(NC2CC2)cc(-c2ccc3c(ccn3C3CC(C)(C)NC(C)(C)C3)c2)n1 | 107 ×10⁻⁶ cm/s
Cc1nn2c(c1-c1ccccc1Oc1ccccc1)N(Cc1ccccc1O)CCC2 | > 1000 ×10⁻⁶ cm/s
O=C(CCCN1CCC(n2c(=O)[nH]c3ccccc32)CC1)c1ccc(F)cc1 | 952 ×10⁻⁶ cm/s
CCOc1cc(=O)n2c(c1C(=O)Nc1cc(OC)c(Cl)cc1OC)CCCC2 | 96.6 ×10⁻⁶ cm/s
O=C(O)CCC(=O)Nc1nc(-c2ccccc2)cs1 | < 1 ×10⁻⁶ cm/s
COCCNC(=O)c1ccc(Cn2c(=S)[nH]c3cc4c(cc3c2=O)OCO4)cc1 | 108 ×10⁻⁶ cm/s
COc1ccc(NC(=O)c2cccnc2)cc1S(=O)(=O)Nc1ccc(Br)cc1 | 514 ×10⁻⁶ cm/s
CCCCCCN(CCCCCC)C(=O)Cc1c(-c2ccc(F)cc2)[nH]c2ccccc12 | 11.7 ×10⁻⁶ cm/s
Cc1noc(C)c1-c1ccc(Nc2nc(-c3ccncc3)nc3ccccc23)cc1F | 410 ×10⁻⁶ cm/s
Cn1cnc(-c2nccc3c(=O)[nH]c(OCCCC(F)(F)F)nc23)c1 | 109 ×10⁻⁶ cm/s

Structure (SMILES) | Papp
CCN(CC)C(=O)N1c2ccccc2C=Cc2ccccc21 | > 1000 ×10⁻⁶ cm/s
O=C(C1CCN(c2nc(-c3ccc(Br)cc3)cs2)CC1)N1CCNCC1 | 484 ×10⁻⁶ cm/s
COc1ccc(C)cc1NC(=O)c1cnc(-c2ccc(F)cc2)nc1-c1ccncc1 | 130 ×10⁻⁶ cm/s
NC(=O)c1ccc(-c2ncc3cnc(-c4cccc(F)c4)cn23)cc1 | 480 ×10⁻⁶ cm/s
CC(=O)Nc1ccc(N[S+](=O)([O-])c2cccc(NC(=O)c3[nH]c(C)c(C(C)=O)c3C)c2)cc1 | 20.6 ×10⁻⁶ cm/s
CC(C)c1ccc(CC(=O)N2CCCc3ncc(C(=O)Nc4cccnc4)cc32)cc1 | 734 ×10⁻⁶ cm/s
CC(C)Oc1cccc(-c2ccnc(N3CCC(C(N)=O)CC3)n2)c1 | > 1000 ×10⁻⁶ cm/s
Cc1ccc2c(c1)N(S(=O)(=O)c1cc(-c3onc(C)c3C)ccc1C)CCO2 | 664 ×10⁻⁶ cm/s
CC(C)c1ccc(OCc2nc3c(n2Cc2ccccc2)C(=O)N(CC2CCOCC2)CCN3)cc1 | > 1000 ×10⁻⁶ cm/s
Cn1c(CN2CCCCC2)nc2cc(NC(=O)c3cccc(Br)c3)ccc21 | > 1000 ×10⁻⁶ cm/s
Cc1ccc(S(=O)(=O)Nc2cc(F)ccc2C(=O)Nc2nc(-c3ccccc3)cs2)cc1 | 244 ×10⁻⁶ cm/s
CCC(CC)(NC(=O)C(C)C)C(=O)N[C@@H](CCCN=C(N)N)C(=O)NC1(C(=O)NC(c2ccc(F)cc2)c2ccc(F)cc2)CCCC1 | 8 ×10⁻⁶ cm/s
CCCc1cc(C)[nH]c(=O)c1CNC(=O)c1cc(-c2ccnc(N3CCN(C)CC3)c2)cc2c1cnn2C(C)C | 782 ×10⁻⁶ cm/s
CCOc1ccc(-c2nnc(SCC(=O)NCc3ccccc3Cl)o2)cc1 | 5.1 ×10⁻⁶ cm/s
COCc1cc(C)nc(SCC(=O)c2ccc(O)c(O)c2)c1C#N | 118 ×10⁻⁶ cm/s
Cc1noc(C)c1-c1ccc2ncnc(NCc3ccc4[nH]ccc4c3)c2c1 | > 1000 ×10⁻⁶ cm/s
O=C(Nc1ccc(S(=O)(=O)Nc2nccs2)cc1)c1ccncc1 | 1.4 ×10⁻⁶ cm/s
CC(=O)N1CCC(NC(=O)c2nc(-c3ccccc3)cc3[nH]ccc23)CC1 | 288 ×10⁻⁶ cm/s
O=C(NCc1cccc(C(F)(F)F)c1)c1ccc(CN2CCCCC2)cc1 | > 1000 ×10⁻⁶ cm/s
CCOC(=O)c1[nH]c(C)c(CCC(=O)N2CCN(c3cc(Cl)ccc3C)CC2)c1C | > 1000 ×10⁻⁶ cm/s
c1ccc2c(N3CCOCC3)nc(-c3ccncc3)nc2c1 | > 1000 ×10⁻⁶ cm/s
NC(=O)C1CCN(c2nc(-c3ccc4c(c3)OCO4)cs2)CC1 | 740 ×10⁻⁶ cm/s

Structure (SMILES) | Papp
Cc1sc(NC(=O)Cc2ccc3c(c2)OCO3)nc1-c1ccc2c(c1)CCN2C(=O)c1ccccc1F | 1.4 ×10⁻⁶ cm/s
CC(C)CN(C[C@@H](O)[C@H](Cc1ccccc1)NC(=O)O[C@@H]1CO[C@H]2OCC[C@H]21)S(=O)(=O)c1ccc(N)cc1 | 192 ×10⁻⁶ cm/s
COc1ccc(-c2c(-c3cc(C(=O)O)ccn3)ncn2C)cc1 | 3.06 ×10⁻⁶ cm/s
Cc1nc2sccn2c(=O)c1S(=O)(=O)Nc1ccc(N2CCN(C)CC2)cc1 | 289 ×10⁻⁶ cm/s
Cc1cc(NS(=O)(=O)c2ccc(NC(=O)Cc3ccc(Cl)c(Cl)c3)cc2)no1 | 30.2 ×10⁻⁶ cm/s
Cc1ccc(NC(=O)c2cc(-c3ccc(C)o3)nc3ccccc23)nc1 | > 1000 ×10⁻⁶ cm/s
COc1ccc(Cn2c(C(=O)O)c(CNCc3cccc(OC)c3)c3ccc(C)cc32)cc1 | 361 ×10⁻⁶ cm/s
COc1cc(OC)c2c(=O)[nH]c(-c3cc(C)c(OCCO)c(C)c3)nc2c1 | 540 ×10⁻⁶ cm/s
COC(=O)[C@@]12OC[C@]34[C@H]([C@@H](O)[C@@H]1O)[C@@]1(C)CC(=O)C(O)=C(C)[C@@H]1C[C@H]3OC(=O)[C@H](OC(=O)/C=C(\C)C(C)C)[C@@H]24 | 120 ×10⁻⁶ cm/s
CC(C)Oc1ccc(CNC(=O)C2CCN(C(=O)N3CCOc4ccc(Cl)cc43)CC2)cc1 | 451 ×10⁻⁶ cm/s
NCC(=O)Nc1cncc(-c2nn3c(=O)cc(N4CCNCC4)nc3s2)c1 | < 1 ×10⁻⁶ cm/s
COc1ccc(C(=O)N[C@@H]2CCC[C@@H]2C(=O)N2CCC(Cc3ccccc3)CC2)cc1 | > 1000 ×10⁻⁶ cm/s
Cc1cnc(-c2ccccc2C(C)C)nc1NCC1CN(c2cccnc2)C1 | > 1000 ×10⁻⁶ cm/s
CC[C@@H](CO)NC(=O)[C@@H]1C=C2c3cccc4c3c(cn4C)C[C@H]2N(C)C1 | 396 ×10⁻⁶ cm/s
NC(=O)C1CCN(c2nc(-c3cccc([N+](=O)[O-])c3)cs2)CC1 | 568 ×10⁻⁶ cm/s
CC(C)(C)C1CCc2c(sc(NC(=O)c3ccncc3)c2C(N)=O)C1 (stereo not given) | 581 ×10⁻⁶ cm/s
Cc1cc(-c2nnc3n2CCCCC3)c(C)n1-c1ccc(C(F)(F)F)cc1 | > 1000 ×10⁻⁶ cm/s
COc1ccc(NC(=O)c2[nH]c(C)c(C(C)=O)c2C)cc1S(=O)(=O)N(C)C | 329 ×10⁻⁶ cm/s
COC(=O)c1ccc2nc(NC3=NC(c4[nH]ncc4Cl)C4=C(CCCC4=O)N3)oc2c1 (stereo not given) | 578 ×10⁻⁶ cm/s
N[C@@H](Cc1cc(Br)c(O)c(Br)c1)C(=O)O | 3.64 ×10⁻⁶ cm/s
Cc1nc(Sc2nnnn2C)c2c(-c3ccccc3)csc2n1 | 826 ×10⁻⁶ cm/s
COc1cc(C2c3c(oc4cc(C)c(C)cc4c3=O)C(=O)N2CCCN2CCOCC2)ccc1O (stereo not given) | 118 ×10⁻⁶ cm/s

Structure (SMILES) | Papp
CN(C)c1cccc(-c2cnc(N3CCC(c4ncc[nH]4)CC3)s2)c1 | 955 ×10⁻⁶ cm/s
COc1ccc(OCc2ccc(-c3nc(C#N)c(NC(C)c4ccccc4)o3)o2)cc1 (stereo not given) | 20.9 ×10⁻⁶ cm/s
O=c1cc(-c2ccccc2)oc2cc(O)cc(O)c12 | 452 ×10⁻⁶ cm/s
CCOC(=O)C1=C(C)NC(=O)CC1C(=O)Nc1cc(Cl)cc(Cl)c1 (stereo not given) | 599 ×10⁻⁶ cm/s
CC(=O)c1c(C)[nH]c(C(=O)Nc2cccc(S(=O)(=O)Nc3ccc(Br)cc3)c2)c1C | 288 ×10⁻⁶ cm/s
O=C(C1CCN(c2nc(-c3ccc(Br)cc3)cs2)CC1)N1CCOCC1 | 236 ×10⁻⁶ cm/s
Cn1cc2c3c(cccc31)CN(C(=O)c1ccc(F)c(Cl)c1)CC2 | > 1000 ×10⁻⁶ cm/s
COc1cccc(C(=O)Nc2ccc([S+](=O)([O-])Nc3nccs3)cc2)c1O | 3.5 ×10⁻⁶ cm/s
Fc1ccc(-c2nc(-c3ccncc3)nc3ccccc23)cc1F | > 1000 ×10⁻⁶ cm/s
O=[S+]([O-])(Nc1ccc(N2CCNCC2)cc1)c1ccc(NCc2ccc(Cl)cc2O)cc1 | 6.78 ×10⁻⁶ cm/s
Nc1cccc(CNc2ccc(S(=O)(=O)Nc3nccs3)cc2)c1O | < 1 ×10⁻⁶ cm/s
COc1ccc2[nH]cc(CCNC(=O)c3cnn(-c4ccc(C)cc4)c3C3CCN(C(=O)OC(C)(C)C)CC3)c2c1 | 153 ×10⁻⁶ cm/s
COc1cc(Nc2nc(-c3ccncc3)nc3ccccc23)ccc1N1CCN(C)CC1 | > 1000 ×10⁻⁶ cm/s
Oc1cccc2nc3ccccc3nc12 | 513 ×10⁻⁶ cm/s
C[S+](=O)([O-])c1ccc(-c2nc(C(=O)N3CCOCC3)n3ccccc23)cc1 | 180 ×10⁻⁶ cm/s
N#Cc1cccc(-c2csc(N3CCC(C(N)=O)CC3)n2)c1 | 450 ×10⁻⁶ cm/s
COc1ccc(-c2ccc3nc(-c4ccccc4C)oc3c2)c(OC)c1OC | < 1 ×10⁻⁶ cm/s
CC1CCN(S(=O)(=O)c2ccc3c(ccc(=O)n3CC(=O)NCc3ccc(Cl)cc3)c2)CC1 | 799 ×10⁻⁶ cm/s
CC1CCN(S(=O)(=O)c2ccc3c(c2)C(C)(C)C(=O)N3CC(=O)NCc2ccco2)CC1 | 584 ×10⁻⁶ cm/s

From PubChem BioAssay AID1508612
